The source of these data is patent US10392404B2, “Compounds and compositions as kinase inhibitors” (NOVARTIS AG, priority 2014, dated 2019).

One assay addresses T1, C-RAF (Homo sapiens, UniProt P04049, Y340E/Y341E).
T1 construct: His tag (implied by nickel chromatography) (cleaved yes); StrepII tag (cleaved yes); made in house; host or cells: Sf9 insect cells (baculovirus), CRAF and h14-3-3 zeta co-expressed; MEK1 substrate from E. coli
The assay is described as follows: In vitro Raf activity determination (Alpha Screen, biotinylated kinase-dead MEK1 substrate), C-Raf. The assay is classed as biochemical. Particulars: c-Raf approximately 4 nM; ATP 1 μM; pre-incubation 60 minutes; reaction 1 hour at room temperature. An outline of the steps: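 AlphaScreen read-out of MEK phosphorylation using an anti-phospho-MEK1/2 antibody after a 1 hour room-temperature reaction at 1 μM ATP. Enzyme: approximately 4 nM Sf9-expressed full-length activated C-Raf (Y340E/Y341E, with 14-3-3ζ) on approximately 10 nM biotinylated K97R MEK1, after 60 min compound preincubation. IC50 by non-linear fit.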

The target in the next assay is T2, b-Raf (V600E) (Homo sapiens, UniProt P15056, V600E).
T2 construct: made in house
The experiment in a line: In vitro Raf activity determination (Alpha Screen, biotinylated kinase-dead MEK1 substrate), B-Raf. The assay is classed as biochemical. The following applies: b-Raf (V600E) approximately 4 pM; ATP 10 μM; pre-incubation 60 minutes; reaction 3 hours at room temperature. An outline of the steps:
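IC50 from non-linear regression of AlphaScreen phospho-MEK signal (anti-p-MEK1/2 antibody). b-Raf(V600E), about 4 pM, phosphorylated ~10 nM biotinylated K97R MEK1 with 10 μM ATP for 3 h at room temperature after 60 min compound pre-incubation; buffer pH 7.5 Tris, 15 mM MgCl2, 1 mM DTT.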

pIC50: −log10 of the molar value.

T2 sequence (P15056 whole entry V600E): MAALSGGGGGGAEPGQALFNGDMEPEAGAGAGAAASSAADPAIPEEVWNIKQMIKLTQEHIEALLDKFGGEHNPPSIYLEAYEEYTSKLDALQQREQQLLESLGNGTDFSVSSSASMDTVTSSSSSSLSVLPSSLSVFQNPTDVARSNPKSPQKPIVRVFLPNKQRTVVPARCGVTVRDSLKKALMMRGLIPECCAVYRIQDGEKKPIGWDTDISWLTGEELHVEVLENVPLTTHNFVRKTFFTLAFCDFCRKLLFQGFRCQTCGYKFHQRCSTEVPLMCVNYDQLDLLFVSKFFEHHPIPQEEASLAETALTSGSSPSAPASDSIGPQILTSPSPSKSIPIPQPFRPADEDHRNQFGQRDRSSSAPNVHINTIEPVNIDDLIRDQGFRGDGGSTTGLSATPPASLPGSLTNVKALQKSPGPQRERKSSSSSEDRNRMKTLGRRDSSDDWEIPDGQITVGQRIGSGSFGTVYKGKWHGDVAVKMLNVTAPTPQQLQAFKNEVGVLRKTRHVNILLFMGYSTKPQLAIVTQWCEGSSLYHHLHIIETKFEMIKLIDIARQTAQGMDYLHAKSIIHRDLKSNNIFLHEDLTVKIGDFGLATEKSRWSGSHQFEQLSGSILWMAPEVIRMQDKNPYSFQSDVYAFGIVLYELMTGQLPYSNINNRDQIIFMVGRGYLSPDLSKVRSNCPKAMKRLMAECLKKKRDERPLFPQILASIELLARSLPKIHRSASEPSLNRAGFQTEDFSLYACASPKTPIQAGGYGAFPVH
T1 sequence (P04049 whole entry Y340E/Y341E): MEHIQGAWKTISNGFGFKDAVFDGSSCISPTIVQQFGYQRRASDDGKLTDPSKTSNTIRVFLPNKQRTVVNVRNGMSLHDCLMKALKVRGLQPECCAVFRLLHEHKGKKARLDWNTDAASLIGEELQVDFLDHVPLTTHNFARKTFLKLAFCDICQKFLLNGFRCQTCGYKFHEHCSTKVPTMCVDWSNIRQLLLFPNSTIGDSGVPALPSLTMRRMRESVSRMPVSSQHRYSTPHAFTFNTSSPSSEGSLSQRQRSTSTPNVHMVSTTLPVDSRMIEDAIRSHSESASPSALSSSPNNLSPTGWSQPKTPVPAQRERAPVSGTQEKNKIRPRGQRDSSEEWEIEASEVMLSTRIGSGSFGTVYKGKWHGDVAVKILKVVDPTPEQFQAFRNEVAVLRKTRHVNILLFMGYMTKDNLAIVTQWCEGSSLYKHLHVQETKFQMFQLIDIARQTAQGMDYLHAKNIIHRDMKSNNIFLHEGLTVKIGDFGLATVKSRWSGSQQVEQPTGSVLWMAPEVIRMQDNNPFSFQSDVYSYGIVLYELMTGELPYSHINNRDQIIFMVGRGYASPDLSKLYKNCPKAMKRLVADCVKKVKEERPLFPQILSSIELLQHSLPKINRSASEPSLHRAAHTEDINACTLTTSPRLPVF
T1 sequence (P63104 whole entry partner): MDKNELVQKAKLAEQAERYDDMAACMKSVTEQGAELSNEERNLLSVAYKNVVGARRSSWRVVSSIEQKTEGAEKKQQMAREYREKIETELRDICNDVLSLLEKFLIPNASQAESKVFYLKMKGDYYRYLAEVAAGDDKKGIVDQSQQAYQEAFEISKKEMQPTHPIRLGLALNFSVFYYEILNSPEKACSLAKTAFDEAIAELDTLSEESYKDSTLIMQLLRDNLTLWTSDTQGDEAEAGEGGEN

Consider `Cc1ccc(NC(=O)c2ccnc(C(C)(C)O)c2)cc1-c1cnc(NC2CCOCC2)c(C#N)c1` [Example 168, N-(3-(5-cyano-6-((tetrahydro-2H-pyran-4-yl)amino)pyridin-3-yl)-4-methylphenyl)-2-(2-hydroxypropan-2-yl)isonicotinamide], for which the figures for the pIC50 on C-RAF and on b-Raf (V600E) were 9.31 and 8.84, respectively.
Turning to `Cc1ccc(NC(=O)c2ccnc(C(C)(C)O)c2)cc1-c1cnc(C2CCOCC2)c(C#N)c1` [Example 140, N-(3-(5-cyano-6-(tetrahydro-2H-pyran-4-yl)pyridin-3-yl)-4-methylphenyl)-2-(2-hydroxypropan-2-yl)isonicotinamide], the pIC50 is 9.10 on C-RAF and 8.44 on b-Raf (V600E).
Turning to `Cc1ncc(NC(=O)c2ccnc(C(C)(C)C#N)c2)cc1-c1cnc(-c2cccnc2)c(C#N)c1` [Example 108, N-(3′-cyano-2″- methyl-[3,2′:5′,3″- terpyridin]-5″-yl)-2-(2-cyanopropan-2-yl)isonicotinamide], the negative logarithm of the IC50 (pIC50) against C-RAF was 8.58; against b-Raf (V600E), 7.86.
On to `Cc1ccc(NC(=O)c2ccnc(C(F)(F)F)c2)cc1-c1cc(C#N)c(N)nc1C` [Example 42, N-(3-(6-amino-5-cyano-2-methylpyridin-3-yl)-4-methylphenyl)-2-(trifluoromethyl) isonicotinamide], for which the pIC50 against C-RAF was 9.17; on b-Raf (V600E), 7.99.
On to `Cc1ncc(NC(=O)c2cnnc(C(F)(F)F)c2)cc1-c1cnc(N2CC(C)(O)C2)c(C#N)c1` [Example 181, N-(5′-cyano-6′-(3-hydroxy-3-methylazetidin-1-yl)-2-methyl-[3,3′-bypyridin]-5-yl)-6-(trifluoromethyl) pyridazine-4-carboxamide], for which the pIC50 at C-RAF was 7.78; at b-Raf (V600E), 6.95.
For `Cc1ccc(NC(=O)c2ccnc(C(C)(C)C#N)c2)cc1-c1cnc(-n2ccc(=O)cc2)c(C#N)c1` [Example 120, N-(3-(3′-cyano-4-oxo-4H-[1,2′-bipyridin]-5′-yl)-4-methylphenyl)-2-(2-cyanopropan-2-yl)isonicotinamide], the pIC50 is 8.16 against C-RAF and 7.46 against b-Raf (V600E).
Consider `Cc1ncc(NC(=O)c2cnnc(C(C)(C)C#N)c2)cc1-c1cnc(NC2CCOCC2)c(C#N)c1` [Example 205, N-(5′-cyano-2-methyl-6′-((tetrahydro-2H-pyran-4-yl)amino)-[3,3′-bipyridin]-5-yl)-6-(2-cyanopropan-2-yl)pyridazine-4-carboxamide], for which the figures for the pIC50 against C-RAF and against b-Raf (V600E) were 8.74 and 7.96, respectively.
In the case of `Cc1ncc(NC(=O)c2ccnc(C(C)(C)C#N)c2)cc1-c1cnc(N2CC(C)(O)C2)c(C#N)c1` [Example 30, N-(5′-cyano-6′-(3-hydroxy-3-methylazetidin-1-yl)-2-methyl-[3,3′-bipyridin]-5-yl)-2-(2-cyanopropan-2-yl) isonicotinamide], the pIC50 at C-RAF was 8.43; against b-Raf (V600E), 7.54.
Taken in the same sequence, the figures for `COCCNc1ncc(-c2cc(NC(=O)c3ccnc(C(C)(C)C#N)c3)cnc2C)cc1C#N` [Example 198, N-(5′-cyano-6′-((2-methoxyethyl)amino)-2-methyl-[3,3′-bipyridin]-5-yl)-2-(2-cyanopropan-2-yl)isonicotinamide] were 8.39 and 7.87.
Taken in the same sequence, the figures for `Cc1ncc(NC(=O)c2cccc(C(F)(F)F)c2)cc1-c1cnc(N2CCS(=O)(=O)CC2)c(C#N)c1` [Example 85, N-(5′-cyano-6′-(1,1-dioxidothiomorpho-lino)-2-methyl-[3,3′-bipyridin]-5-yl)-3-(trifluoromethyl) benzamide] were 9.64 and 8.88.
For `Cc1ccc(NC(=O)c2cccc(C(F)F)c2)cc1-c1cnc(N2CCNCC2)c(C#N)c1` [Example 163, N-(3-(5-cyano-6-(piperazin-1-yl)pyridin-3-yl)-4-methylphenyl)-3-(difluoromethyl) benzamide], the pIC50 is 9.90 at C-RAF and 9.05 at b-Raf (V600E).
Regarding `Cc1ncc(NC(=O)c2ccnc(C(C)(C)C#N)c2)cc1-c1cnc(-c2ccn(C)n2)c(C#N)c1` [Example 109, N-(5′-cyano-2-methyl-6′-(1-methyl-1H-pyrazol-3-yl)-[3,3′-bipyridin]-5-yl)-2-(2-cyanopropan-2-yl)isonicotinamide], the figures for the pIC50 against C-RAF and against b-Raf (V600E) were 8.56 and 7.70, respectively.
For `Cc1ncc(NC(=O)c2cccc(S(C)(=O)=O)c2)cc1-c1cnc(N(C)C)c(C#N)c1` [Example 270, N-(5′-cyano-6′-(dimethylamino)-2-methyl-[3,3′-bipyridin]-5-yl)-3-(methylsulfonyl) benzamade], in that order: 9.31 and 8.27.
Consider `Cc1ncc(NC(=O)c2ccnc(C(C)(C)C#N)c2)cc1-c1cnc(N2C[C@H]3CC[C@@H](C2)O3)c(C#N)c1` [Example 88, N-(6′-((1R,5S)-8-oxa-3-azabicyclo[3,2,1]octan-3-yl)-5′-cyano-2-methyl-[3,3′-bipyridin]-5-yl)-2-(2-cyanopropan-2-yl)isonicotinamide], for which the pIC50 is 9.21 against C-RAF and 8.69 against b-Raf (V600E).
On to `Cc1ccc(NC(=O)c2ccnc(C(F)(F)F)c2)cc1-c1cnc(-n2ccc(=O)cc2)c(C#N)c1` [Example 119, N-(3-(3′-cyano-4-oxo-4H-[1,2′-bipyridin]-5′-yl)-4-methylphenyl)-2-(trifluoromethyl) isonicotinamide], for which the results for the pIC50 against C-RAF and on b-Raf (V600E) were 8.78 and 7.91, respectively.
On to `Cc1ncc(NC(=O)c2cnnc(C(C)(C)C#N)c2)cc1-c1cnc(N2CC(C)(O)C2)c(C#N)c1` [Example 186, N-(5′-cyano-6′-(3-hydroxy-3-methylazetidin-1-yl)-2-methyl-[3,3′-bipyridin]-5-yl)-6-(2-cyanopropan-2-yl)pyridazine-4-carboxamide], for which the negative logarithm of the IC50 (pIC50) was 7.99 against C-RAF and 7.28 on b-Raf (V600E).
`Cc1ncc(NC(=O)c2ccnc(C3(C#N)CC3)c2)cc1-c1cnc(N2CCOCC2)c(C#N)c1` [Example 146, N-(5′-cyano-2-methyl-6′-morpholino-[3,3′-bipyridin]-5-yl)-2-(1-cyanocyclopropyl) isonicotinamide]: the values for the pIC50 at C-RAF and on b-Raf (V600E) were 9.58 and 8.87, respectively.
`Cc1ccc(NC(=O)c2cccc(C(F)(F)F)c2)cc1-c1cc(C#N)c[nH]c1=O` [Example 14, N-(3-(5-cyano-2-oxo-1,2-dihydropyridin-3-yl)-4-methylphenyl)-3-(trifluoromethyl) benzamide]: the pIC50 at C-RAF is 9.21; on b-Raf (V600E) it was 7.95.
Consider `COCCNc1ncc(-c2cc(NC(=O)c3cnnc(C(F)(F)F)c3)ccc2C)cc1C#N` [Example 179, N-(3-(5-cyano-6-((2-methoxyethyl)amino)pyridin-3-yl)-4-methylphenyl)-6-(trifluoromethyl) pyridazine-4-carboxamide], for which the pIC50 was 9.23 on C-RAF and 8.39 against b-Raf (V600E).
Turning to `Cc1ccc(NC(=O)c2cc(C(C)(C)F)ccn2)cc1-c1cnc(N2CCOCC2)c(C#N)c1` [Example 245, N-(3-(5-cyano-6-morpholinopyridin-3-yl)-4-methylphenyl)-4-(2-fluoropropan-2-yl)picolinamide], the pIC50 at C-RAF was 9.27; against b-Raf (V600E), 8.49.
In the case of `Cc1ncc(NC(=O)c2ccnc(C(C)(C)C#N)c2)cc1-c1cnc(-c2c(C)nn(C)c2C)c(C#N)c1` [Example 114, N-(5′-cyano-2-methyl-6′-(1,3,5-trimethyl-1H-pyrazol-4-yl)-[3,3′-bipyridin]-5-yl)-2-(2-cyanopropan-2-yl)isonicotinainide], the pIC50 on C-RAF is 8.09; on b-Raf (V600E) it was 7.49.
For `Cc1ncc(NC(=O)c2cnnc(C3CC3)c2)cc1-c1cnc(NC2CCOCC2)c(C#N)c1` [Example 200, N-(5′-cyano-2-methyl-6′-((tetrahydro-2H-pyran-4-yl)amino)-[3,3′-bipyridin]-5-yl)-6-cyclopropylpyridazine-4-carboxamide], in that order: 8.62 and 7.82.
Consider `Cc1ccc(NC(=O)c2cnnc(C(F)(F)F)c2)cc1-c1cnc(N2CCNCC2)c(C#N)c1` [Example 143, N-(3-(5-cyano-6-(piperazin-1-yl)pyridin-3-yl)-4-methylphenyl)-6-(trifluoromethyl) pyridazine-4-carboxamide], for which the figures for the pIC50 at C-RAF and on b-Raf (V600E) were 9.07 and 8.25, respectively.
As to `Cc1ccc(NC(=O)c2cccc(S(C)(=O)=O)c2)cc1-c1cnc(N(C)C)c(C#N)c1` [Example 260, N-(3-(5-cyano-6-(dimethylamino)pyridin-3-yl)-4-methylphenyl)-3-(methylsulfonyl) benzamide], the pIC50 is 9.94 on C-RAF and 9.53 at b-Raf (V600E).
On to `Cc1ncc(NC(=O)c2ccnc(C(C)(C)C#N)c2)cc1-c1cnc(N2CCOC(C)(C)C2)c(C#N)c1` [Example 89, N-(5′-cyano-6′-(2,2-dimethylmorpholino)-2-methyl-[3,3′-bipyridin]-5-yl)-2-(2-cyanopropan-2-yl)isonicotinamide], for which the pIC50 at C-RAF is 8.99; on b-Raf (V600E), 8.47.
Regarding `CCn1cc(C(=O)Nc2cnc(C)c(-c3cnc(N4CCOCC4)c(C#N)c3)c2)cc(C(F)(F)F)c1=O` [Example 135, N-(5′-cyano-2-methyl-6′-morpholino-[3,3′-bipyridin]-5-yl)-1-ethyl-6-oxo-5-(trifluoromethyl)-1,6-dihydropyridine-3-carboxamide], the pIC50 on C-RAF is 9.01; on b-Raf (V600E) it was 8.32.
